Test results reported in patent publication US9884842B2, “Combretastatin analogs” (The Board of Trustees of the University of Arkansas, priority 2013, dated 2018).
Like-named read-outs stand apart in the source and are kept apart here.

Key:
PC-3 = assay: NCI growth inhibition and cytotoxicity screen, Prostate Cancer panel; conditions: Homo sapiens; for GI50: PC-3; for CC50: PC-3, read-out: LC50
OVCAR-4 = assay: NCI growth inhibition and cytotoxicity screen, Ovarian Cancer panel; conditions: Homo sapiens; for GI50: OVCAR-4; for CC50: OVCAR-4, read-out: LC50
MCF7 = assay: NCI growth inhibition and cytotoxicity screen, Breast Cancer panel; conditions: Homo sapiens; for GI50: MCF7; for CC50: MCF7, read-out: LC50
SF-295 = assay: NCI growth inhibition and cytotoxicity screen, CNS Cancer panel; type: cell-based; conditions: Homo sapiens; for CC50: read-out: LC50 (the source's name)
MDA-MB-231/ATCC = assay: NCI growth inhibition and cytotoxicity screen, Breast Cancer panel; conditions: Homo sapiens; for GI50: MDA-MB-231; for CC50: MDA-MB-231, read-out: LC50
SNB-19 = assay: NCI growth inhibition and cytotoxicity screen, CNS Cancer panel; conditions: Homo sapiens; for GI50: SNB-19; for CC50: SNB-19, read-out: LC50
LOX-IMVI = assay: NCI growth inhibition and cytotoxicity screen, Melanoma panel; conditions: Homo sapiens; for CC50: read-out: LC50
OVCAR-5 = assay: NCI growth inhibition and cytotoxicity screen, Ovarian Cancer panel; conditions: Homo sapiens; for GI50: OVCAR-5; for CC50: OVCAR-5, read-out: LC50
HCC-2998 = assay: NCI growth inhibition and cytotoxicity screen, Colon Cancer panel; conditions: Homo sapiens; for GI50: HCC 2998; for CC50: HCC 2998, read-out: LC50
SNB-75 = assay: NCI growth inhibition and cytotoxicity screen, CNS Cancer panel; conditions: Homo sapiens; for GI50: SNB-75; for CC50: SNB-75, read-out: LC50
MDA-MB-468 = assay: cells; conditions: Homo sapiens; for GI50: MDA-MB-468; for CC50: MDA-MB-468, read-out: LC50
MALME-3M = assay: NCI growth inhibition and cytotoxicity screen, Melanoma panel; conditions: Homo sapiens; for CC50: read-out: LC50
NCI-H522 = assay: NCI growth inhibition and cytotoxicity screen, Lung Cancer panel; type: cell-based; conditions: Homo sapiens; for CC50: read-out: LC50 (the source's name)
U251 = assay: NCI growth inhibition and cytotoxicity screen, CNS Cancer panel; conditions: Homo sapiens; for GI50: U-251; for CC50: U-251, read-out: LC50
SW-620 = assay: NCI growth inhibition and cytotoxicity screen, Colon Cancer panel; conditions: Homo sapiens; for GI50: SW-620; for CC50: SW-620, read-out: LC50
SF-539 = assay: NCI growth inhibition and cytotoxicity screen, CNS Cancer panel; conditions: Homo sapiens; for GI50: SF-539; for CC50: SF-539, read-out: LC50
K-562 = assay: NCI growth inhibition and cytotoxicity screen, Leukemia panel; conditions: Homo sapiens; for CC50: K562, read-out: LC50
NCI-H226 = assay: NCI growth inhibition and cytotoxicity screen, Lung Cancer panel; conditions: Homo sapiens; for GI50: NCI-H226; for CC50: NCI-H226, read-out: LC50
MOLT-4 = assay: NCI growth inhibition and cytotoxicity screen, Leukemia panel; conditions: Homo sapiens; for GI50: MOLT-4; for CC50: MOLT-4, read-out: LC50
CCRF-CEM = assay: as above; conditions: Homo sapiens; for CC50: read-out: LC50
KM12 = assay: NCI growth inhibition and cytotoxicity screen, Colon Cancer panel; conditions: Homo sapiens; for GI50: KM12; for CC50: KM12, read-out: LC50
HCT-15 = assay: as above; conditions: Homo sapiens; for GI50: HCT-15; for CC50: HCT-15, read-out: LC50
SK-MEL-5 = assay: NCI growth inhibition and cytotoxicity screen, Melanoma panel; conditions: Homo sapiens; for GI50: SK-MEL-5; for CC50: SK-MEL-5, read-out: LC50
CAKI-1 = assay: NCI growth inhibition and cytotoxicity screen, Renal Cancer panel; conditions: Homo sapiens; for GI50: CAKI-1; for CC50: CAKI-1, read-out: LC50
SK-MEL-2 = assay: NCI growth inhibition and cytotoxicity screen, Melanoma panel; conditions: Homo sapiens; for GI50: SK-MEL-2; for CC50: SK-MEL-2, read-out: LC50
NCI-H23 = assay: NCI growth inhibition and cytotoxicity screen, Lung Cancer panel; conditions: Homo sapiens; for GI50: NCI-H23; for CC50: NCI-H23, read-out: LC50
SK-OV-3 = assay: NCI growth inhibition and cytotoxicity screen, Ovarian Cancer panel; conditions: Homo sapiens; for GI50: SK-OV-3; for CC50: SK-OV-3, read-out: LC50
ACHN = assay: NCI growth inhibition and cytotoxicity screen, Renal Cancer panel; conditions: Homo sapiens; for CC50: read-out: LC50
UACC-257 = assay: NCI growth inhibition and cytotoxicity screen, Melanoma panel; conditions: Homo sapiens; for CC50: UACC-257, read-out: LC50
SN12C = assay: NCI growth inhibition and cytotoxicity screen, Renal Cancer panel; conditions: Homo sapiens; for CC50: read-out: LC50
NCI-H322M = assay: NCI growth inhibition and cytotoxicity screen, Lung Cancer panel; conditions: Homo sapiens; for CC50: read-out: LC50
HS 578T = assay: NCI growth inhibition and cytotoxicity screen, Breast Cancer panel; conditions: Homo sapiens; for CC50: read-out: LC50
[1] = Table 2, cell line SF-295 (CNS Cancer)
[2] = Table 2, cell line NCI-H522 (Lung Cancer)
[3] = SF-295, Table 1, cell line SF-2395 (CNS Cancer)
[4] = NCI-H522, Table 1, cell line NCIH522 (Lung Cancer)

COc1cc(/C(C#N)=C/c2cnc3ccccc3c2)cc(OC)c1OC [PNR-5-10, (Z)-3-(quinolin-3-yl)-2-(3,4,5-trimethoxyphenyl)acrylonitrile]
GI50 (PC-3): 1080 nM
CC50 (PC-3): > 100 µM
GI50 (OVCAR-4): 13.8 µM
CC50 (OVCAR-4): > 100 µM
GI50 (MCF7): 429 nM
CC50 (MCF7): > 100 µM
GI50 (SF-295; [1]): 556 nM
CC50 (SF-295; [1]): > 100 µM
GI50 (MDA-MB-231/ATCC): 2830 nM
CC50 (MDA-MB-231/ATCC): > 100 µM
GI50 (SNB-19): 5230 nM
CC50 (SNB-19): > 100 µM
GI50 (LOX-IMVI): 645 nM
CC50 (LOX-IMVI): > 100 µM
GI50 (OVCAR-5): 3940 nM
CC50 (OVCAR-5): > 100 µM
GI50 (HCC-2998): 2010 nM
CC50 (HCC-2998): > 100 µM
GI50 (SNB-75): 1490 nM
CC50 (SNB-75): > 100 µM
GI50 (MDA-MB-468): 870 nM
CC50 (MDA-MB-468): > 100 µM
GI50 (MALME-3M): 691 nM
CC50 (MALME-3M): > 100 µM
GI50 (NCI-H522; [2]): 299 nM
CC50 (NCI-H522; [2]): > 100 µM
GI50 (U251): 1700 nM
CC50 (U251): > 100 µM
GI50 (SW-620): 420 nM
CC50 (SW-620): > 100 µM
GI50 (SF-539): 361 nM
CC50 (SF-539): > 100 µM
GI50 (K-562; K562): 444 nM
CC50 (K-562): > 100 µM
GI50 (NCI-H226): > 100000 nM
CC50 (NCI-H226): > 100 µM
GI50 (MOLT-4): 3200 nM
CC50 (MOLT-4): > 100 µM
GI50 (CCRF-CEM): 1380 nM
CC50 (CCRF-CEM): > 100 µM
GI50 (KM12): 436 nM
CC50 (KM12): > 100 µM
GI50 (HCT-15): 1080 nM
CC50 (HCT-15): > 100 µM
GI50 (SK-MEL-5): 410 nM
CC50 (SK-MEL-5): > 100 µM
GI50 (CAKI-1): 346 nM
CC50 (CAKI-1): > 100 µM
GI50 (SK-MEL-2): 1050 nM
CC50 (SK-MEL-2): > 100 µM
GI50 (NCI-H23): 2930 nM
CC50 (NCI-H23): > 100 µM
GI50 (SK-OV-3): 1340 nM
CC50 (SK-OV-3): > 100 µM
GI50 (ACHN): 911 nM
CC50 (ACHN): > 100 µM
CC50 (UACC-257): > 100 µM
GI50 (SN12C): 1940 nM
CC50 (SN12C): > 100 µM
GI50 (NCI-H322M): 27.4 µM
CC50 (NCI-H322M): > 100 µM
GI50 (HS 578T): 1310 nM
CC50 (HS 578T): > 100 µM

COc1cc(/C=C/c2cc3ccccc3o2)cc(OC)c1OC [Formula (I)(c)]
GI50 (PC-3): 0.52 nM
CC50 (PC-3): > 100 µM
GI50 (OVCAR-4): 0.00115 µM
CC50 (OVCAR-4): > 100 µM
GI50 (MCF7): 0.37 nM
CC50 (MCF7): > 100 µM
GI50 (SF-295; [3]): 0.35 nM
CC50 (SF-295; [3]): > 100 µM
GI50 (MDA-MB-231/ATCC): 1.17 nM
CC50 (MDA-MB-231/ATCC): > 100 µM
GI50 (SNB-19): 0.58 nM
CC50 (SNB-19): > 100 µM
GI50 (LOX-IMVI): 0.89 nM
CC50 (LOX-IMVI): 60.4 µM
GI50 (OVCAR-5): 2.94 nM
CC50 (OVCAR-5): > 100 µM
GI50 (HCC-2998): 3.34 nM
CC50 (HCC-2998): > 100 µM
GI50 (SNB-75): 0.47 nM
CC50 (SNB-75): > 100 µM
GI50 (MDA-MB-468): 0.66 nM
CC50 (MDA-MB-468): > 100 µM
GI50 (MALME-3M): 0.41 nM
CC50 (MALME-3M): 86.3 µM
GI50 (NCI-H522; [4]): 0.43 nM
CC50 (NCI-H522; [4]): > 100 µM
GI50 (U251): 0.66 nM
CC50 (U251): 81.2 µM
GI50 (SW-620): 0.44 nM
CC50 (SW-620): > 100 µM
GI50 (SF-539): 0.27 nM
CC50 (SF-539): > 100 µM
CC50 (K-562): > 100 µM
GI50 (NCI-H226): 1.1 nM
CC50 (NCI-H226): > 100 µM
GI50 (MOLT-4): 0.85 nM
CC50 (MOLT-4): > 100 µM
GI50 (CCRF-CEM): 0.42 nM
CC50 (CCRF-CEM): > 100 µM
GI50 (KM12): 0.5 nM
CC50 (KM12): > 100 µM
GI50 (HCT-15): 0.4 nM
CC50 (HCT-15): > 100 µM
GI50 (SK-MEL-5): 0.34 nM
CC50 (SK-MEL-5): 42 µM
GI50 (CAKI-1): 0.58 nM
CC50 (CAKI-1): > 100 µM
GI50 (SK-MEL-2): 0.76 nM
CC50 (SK-MEL-2): > 100 µM
GI50 (NCI-H23): 3.09 nM
CC50 (NCI-H23): > 100 µM
GI50 (SK-OV-3): 0.65 nM
CC50 (SK-OV-3): > 100 µM
GI50 (ACHN): 0.86 nM
CC50 (ACHN): > 100 µM
GI50 (UACC-257; UACC-257): 16.4 nM
CC50 (UACC-257): > 100 µM
GI50 (SN12C): 4.09 nM
CC50 (SN12C): > 100 µM
GI50 (NCI-H322M): 0.0159 µM
CC50 (NCI-H322M): > 100 µM
GI50 (HS 578T): 0.49 nM
CC50 (HS 578T): > 100 µM
